Measurements as given in patent US11767316B2, “Non-fused thiophene derivatives and their uses” (ENYO PHARMA, priority 2018, dated 2023).

Columns and labels:
[1] = target: T1, CISD1 Gene Product (mitoNEET) (Homo sapiens, UniProt Q9NZ45); assay: Stability of Fe-S cluster binding of purified NEET protein (absorbance 458 nm), mitoNEET; type: biochemical
T1 sequence (Q9NZ45 33-108 limits assumed): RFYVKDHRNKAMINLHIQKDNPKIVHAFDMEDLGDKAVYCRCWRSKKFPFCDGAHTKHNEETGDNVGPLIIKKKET
Method: The modulator effect on the NEET proteins encoded by human CISD1, CISD2, and CISD3 genes by the compounds of the invention has been tested and is reported below. Particularly, the biochemical function of the NEET proteins is measured by the stability of Fe—S cluster binding of the purified NEET proteins.
The Fe—S cluster binding capacity of NEET proteins is known to be coordinated by four amino-acids in a stretch of 16 (three Cysteine and one Histidine). As the lability of the Fe—S cluster of NEET proteins is sensitive to the environment, cluster stability measurements are one of the measures of interactions of NEET proteins with small molecules and compounds. NEET protein/2Fe-2S cluster stability can be assessed by monitoring the decay in absorbance of its characteristic 458-nm peak (characteristic of the oxidized 2Fe-2S cluster) over time. Each NEET protein (mitoNEET, NAF-1 and Miner 2) was tested for its Fe—S binding in the absence or presence of a compound according to the invention (see table 3 below). […]
At pH 6, all the three NEET proteins (mitoNEET, NAF-1 and Miner 2) have a characteristic rate of loss of the bound Fe—S cluster that can be measured by the decrease of absorbance at wavelength 458 nm over time, using a spectrophotometer. […]
A reaction mix containing DMSO diluted in the Bis-Tris Buffer with or without a compound of the invention was prepared. […] The absorbance at wavelength 458 nm was taken at 5 minutes intervals at 37° C. with a spectrofluorimeter. […]
In addition to time monitoring, residual bound Fe—S cluster to NEET protein was measured at the final point of the spectrometry assay for each Test sample and compared to the Control sample data (in parenthesis table 3). This residual binding is measured by the differential percentage between the absorbance 458 nm at time zero and the absorbance 458 nm at the end of the experiment (i.e. respectively 500 or 180 minutes as described hereabove), showing the percentage of NEET protein still able to bind a Fe—S cluster. […]

[2] = test system: H1N1 (influenza A/New Caledonia/20/99); assay: Antiviral effect on A549 cells infected with H1N1 (MUNANA neuraminidase readout); type: cell-based; conditions: H1N1 A/New Caledonia/20/99 at MOI 0.1, 48 h post-infection, MUNANA fluorescence, read-out: IC50
Method: The antiviral effect of the compounds of the invention have been tested on A549 cell lines infected with H1N1 (influenza A/New Caledonia/20/99).
Human A549 cells (80,000 cells/well in a 96 well plate) were treated with a range of concentration of test compounds and immediately infected by H1N1 A/New Caledonia/20/99 virus (clinical isolate) at MOI of 0.1 in DMEM/1% Penicillin/streptomycin supplemented with 0.25 μg/ml TPCK trypsin (Sigma) and incubated at 37° C. in 5% CO2. 48 h post-infection, supernatants (25 μl) were collected and transferred into a 96-well black flat-bottom plate, mixed with 25 μl PBS with Ca++/Mg++(Thermo Fisher) and 50 μl of 2′-(4-Methylumbelliferyl)-α-D-N-acetylneuraminic acid sodium salt hydrate stock-solution (20 μM, MUNANA, Sigma). Plates were incubated 1 h at 37° C. and reaction is stopped by adding 100 μl of Stop Solution (glycine 0.1 M pH10.7/25% ethanol). The amount of fluorescent product released by MUNANA hydrolysis (4-MU) was measured in a Tecan spectrophotometer with excitation and emission wavelengths of 365 and 450 nm respectively.

NFκB = NFκB reporter assay (NanoLuciferase) in A549 cells, TNFα stimulation; type: cell-based; conditions: Homo sapiens, 4 ng/ml TNFα, 6 hours
Description: Compounds of the present invention have been tested for their capacity to inhibit NFκB.
The NFκB reporter construct was made by cloning 5 NFκB responsive elements upstream of a NanoLuciferase reporter gene flanked by AAVS1 genomic sequences.
NFκB Responsive element fused with NanoLuciferase and SV40 late Poly(A) signal was amplified from pNL3.2-NFκB-Nluc (Promega) using NFKB-NLUC-F and NFKB-NLUC-R primers and inserted by Infusion (TaKaRa) in AAVS1 SA-2A-puro-pA donor plasmid (Hockemeyer et al, Nat Biotechnol. 2009, 27, 851-7) digested by Sal1. pCRISPR AAVS1-T2 expressing a guide RNA (gRNA) to target human AAVS1 (T2 target sequence) was constructed by inserting AAVS1-T2A hybridized primers in pLentiCRISPR v2-blast (Sanjana et al, Nat Methods. 2014, 11, 783-4) digested by Bsmb1.
A549 cells were transfected by the plasmids and puromycine selected for 5 days (1 μg mL-1). Then clones were obtained by limiting dilution and selected to maximize TNFα dependent NFkB-NanoLuciferase induction.
The reporter cells were seeded on a 96-well plate for overnight with DMEM including 10% FBS. Test compounds were added at varying concentrations. The cells then were treated with 4 ng/ml TNFα (Peprotech, ref E251) in DMEM+10% FBS. NanoGlo luciferase assay (Promega) was carried out 6 hours later. Luminescence was measured using a Spark 20M spectrofluorimeter (Tecan). Values were normalized to the luminescence measured in untreated cells.

With `O=C(Nc1scc(C2CCc3ccccc3C2)c1C(=O)O)c1ccccc1` (centres unmarked) [#16] the “Time (in minutes) to achieve 50% loss of bound cluster (Absorbance 458 nm)” value ([1]; mitoNEET 20 μM, compound 60 μM, pH 6, 37° C., vehicle control 80) was 35 (80) minutes, the “Residual cluster bound at end of experiment (Percentage Absorbance 458 nm at time zero)” value ([1]; mitoNEET, end of experiment 180 minutes, compound 60 μM, pH 6, vehicle control 16%) was 0% (16%) and the “Stabiliser or destabiliser of NEET protein/Fe-S cluster binding” value ([1]; mitoNEET, destabiliser = time to 50% cluster loss decreased by more than 25% vs control) was “destabilisers”. It also gave an IC50 [2] of 11.1 nM and an EC50 (NFκB) of 80 nM.
